Assay results published in US20060089325A1, “Antisense modulation of PTP1B expression” (priority 2004, published 2006).
Like-named read-outs stand apart in the source and are kept apart here.

Columns and labels:
PTP1B = PTP1B protein in HEPG2 cells (Western blot); assay type: cell-based, human; details: 150 nM, vs no oligo treatment
Description: (§1) There is a high degree of homology between PTP1B and T-cell phosphatase (TC-PTPase, PTPN2), particularly in the catalytic domain. This may present problems in design of small molecule drugs specific for PTP1B. […] HEPG2 human hepatocellular liver carcinoma cells (ATCC, Manassas Va.) are routinely maintained in minimum essential medium (Eagle) with 2 mM L-glutamine and Earle's BSS adjusted to contain 1.5 g/L sodium bicarbonate, 0.1 mM non-essential amino acids, and 1.0 mM sodium pyruvate, […]; fetal bovine serum.
(§2) Levels of PTP1B and TC-PTPase protein were measured by Western blot using mouse monoclonal antibodies to PTP1B (AB-1) and TC-PTPase (AB-1) (CalBiochem/Oncogene sciences, EMD Biosciences, Inc., San Diego Calif.), which specifically identified human target proteins and were used at 0.25 ug/ml. Results were expressed as percent of control (no oligo treatment).

PTP1B protein = PTP1B protein levels in ZDF rats (Western blot); assay type: in vivo, rat; details: 25 mg/kg ip twice weekly four weeks
Description: (§3) ZDF/GmiCrl-fa/fa (ZDF) male rats were purchased from Charles River Laboratories (Wilmington, Mass., USA). Six week old ZDF male rats were injected intraperitoneally with oligonucleotides at a dose of 25 mg/kg two times per week for four weeks. […] Saline-injected animals also serve as controls.
PTP1B protein levels were measured by Western blot analysis.

[1] = system: Zucker diabetic fatty (ZDF) rats; assay: Fed plasma glucose in Zucker diabetic fatty (ZDF) rats; assay type: in vivo, rat; details: 25 mg/kg ip two times per week
Source text: The leptin receptor deficient Zucker diabetic fatty (ZDF) rat is another useful model for the investigation of type 2 diabetes. Diabetes develops spontaneously in these male rats at ages 8-10 weeks, and is associated with hyperphagia, polyuria, polydipsia, and impaired weight gain, symptoms which parallel the clinical symptoms of diabetes (Phillips M S, et al., 1996, Nat Genet 13, 18-19).
as §3

TC-PTPase = TC-PTPase protein in HEPG2 cells (Western blot), specificity; assay type: cell-based, human; details: 150 nM, vs no oligo treatment
Description: as §1, §2

[2] = system: Zucker diabetic fatty (ZDF) rats; assay: Intraperitoneal glucose tolerance test (IPGTT) in ZDF rats; assay type: in vivo, rat; details: for Blood glucose after IPGTT (± SEM) / Insulin excursion after IPGTT (± SEM): 25 mg/kg ip twice weekly
Description: as §3
An intraperitoneal glucose tolerance test (IPGTT) was also performed. Rats received intraperitoneal injections of glucose, and the blood glucose and insulin levels are measured before the glucose challenge and at intervals over 2 hours. The blood glucose levels (in mg/dL) are shown below in Table 1:
The blood glucose levels shown in Table 1 were graphed over time and the area under the curve (AUC) is calculated. A smaller AUC for glucose (smaller blood glucose excursion after glucose challenge) indicates better glucose tolerance. Glucose excursion (AUC) for saline-treated rats was approximately 72,000; for negative control ISIS 141923-treated rats, approximately 80,000, for ISIS 113715-treated rats, approximately 60,000 and for ISIS 106425-treated rats, approximately 63,000.

[3] = rat, in vivo
[4] = Metformin combination in ZDF rats: hypoglycemia, AST/ALT, lipids, plasma lactate; assay type: in vivo, rat; details: after 4 weeks of treatment
Description: 500 mg/kg is the maximally effective dose that can be tolerated by these rats.
There was no significant change in AST/ALT, plasma triglyceride or plasma cholesterol levels in any animal group. Because of the risk of lactic acidosis associated with metformin treatment, plasma lactate levels were measured.

[5] = system: Zucker diabetic fatty (ZDF) rats; assay: ZDF rats, comparison to rosiglitazone and metformin: blood glucose, HbA1c, meal tolerance, body weight; assay type: in vivo, rat; details: for HbA1c: end of study (5 weeks), saline ZDF 9.2%, lean 5.5
Description: A saline treated group of lean rats was also included in the study. Treatment with all drugs was initiated before the rats became frankly diabetic, which occurs at about 8 weeks of age. Plasma glucose levels were measured 3 and 5 weeks after treatment initiation. Body weight was measured once every week; in addition, HbA1c levels were measured at the end of the study by HPLC. A meal tolerance test was also performed after 4 weeks of treatment.
At the end of 5 weeks, some rats were sacrificed and the liver and epididymal fat pads were removed. The rest of the animals (n=4/group) were examined for changes in plasma glucose levels after cessation of treatment. Glucose measurements during the recovery phase were made 10 days and 5 weeks after stopping treatment. Tissue extracts were subjected to Western blot analysis to measure changes in PTP1B protein levels.

[6] = system: Zucker Diabetic Fatty Rats; assay: Combination of ISIS 113715 and metformin in ZDF rats: plasma glucose (Table 18); assay type: in vivo, rat
Description: 500 mg/kg is the maximally effective dose that can be tolerated by these rats. Plasma glucose was measured at week 0 (before treatment) and after weeks 1, 2 and 4 of treatment.

[7] = system: Zucker diabetic fatty (ZDF) rats; assay: ZDF rats, comparison to rosiglitazone and metformin: blood glucose, HbA1c, meal tolerance, body weight; assay type: in vivo, rat; details: 31 day washout after 5 weeks of treatment
[8] = AST/ALT and plasma cholesterol in aged ZDF rats; details: weeks 1, 2, 3, 4 and 5
[9] = 10 day washout after 5 weeks of treatment
[10] = Week 3 of dosing, ISIS 113715 50 mg/kg/week ip, rosiglitazone 10 mg/kg/day, metformin 800 mg/kg/day orally

ISIS 141923: CCTTCCCTGAAGGTTCCTCC (SEQ ID NO: 20), six-mismatch control of ISIS 113715, negative oligonucleotide control (chemistry not given here)
Reduction of PTP1B protein levels (PTP1B): reduced neither PTP1B nor TC-PTPase levels | PTP1B protein levels, decrease vs saline-treated animals (PTP1B protein): 10% | Fed plasma glucose levels ([1]; week 0): approximately 306±59 mg/dL | Fed plasma glucose levels ([1]; week 1): ~391 ± 35 mg/dL | Fed plasma glucose levels ([1]; week 2): ~402 ± 37 mg/dL | Fed plasma glucose levels ([1]; week 3): ~411 ± 27 mg/dL | Fed plasma glucose levels ([1]; week 4): ~392 ± 11 mg/dL | Reduction of TC-PTPase levels (TC-PTPase): reduced neither PTP1B nor TC-PTPase levels | Blood glucose after IPGTT (± SEM) ([2]; 0 min): 330 ± 39 mg/dL | Insulin excursion after IPGTT (± SEM) ([2]; 0 min): 2.2 ± .30 ng/mL | Blood glucose after IPGTT (± SEM) ([2]; 5 min): 543 ± 43 mg/dL | Insulin excursion after IPGTT (± SEM) ([2]; 5 min): 2.3 ± .84 ng/mL | Blood glucose after IPGTT (± SEM) ([2]; 15 min): 703 ± 60 mg/dL | Insulin excursion after IPGTT (± SEM) ([2]; 15 min): 4.0 ± .22 ng/mL | Blood glucose after IPGTT (± SEM) ([2]; 30 min): 791 ± 52 mg/dL | Insulin excursion after IPGTT (± SEM) ([2]; 30 min): 4.2 ± .37 ng/mL | Blood glucose after IPGTT (± SEM) ([2]; 60 min): 705 ± 51 mg/dL | Insulin excursion after IPGTT (± SEM) ([2]; 60 min): 2.4 ± .66 ng/mL | Blood glucose after IPGTT (± SEM) ([2]; 120 min): 594 ± 28 mg/dL | Insulin excursion after IPGTT (± SEM) ([2]; 120 min): 1.7 ± .60 ng/mL | Insulin AUC after IPGTT ([2]; saline approximately 300): ~320 | Glucose excursion (AUC) after IPGTT ([2]; saline approximately 72,000): approximately 80,000 | AST/ALT [3]: no significant effects | Plasma cholesterol levels [3]: no significant effects

CN(C)C(=N)N=C(N)N [Metformin]
Plasma lactate levels [4]: dose-dependent increase in lactate | Body weight after treatment ([5]; 5 weeks): remained unchanged | Blood glucose (approx.) [5, 9]: ~305 mg/dL | Blood glucose (approx.) ([5]; Pre-treatment): ~135 mg/dL | Blood glucose (approx.) [5, 10]: ~180 mg/dL | HbA1c [5]: 6.1% | Effect on blood glucose over the study (in words) ([6]; ISIS 113715 12.5 mg/kg ip twice a week, metformin 100, 300 or 500 mg/kg per day, four weeks): lost over time | Plasma glucose mg/dL ± SEM ([6]; metformin alone 100 mg/kg per day oral gavage, Week 0 (before treatment)): 256 ± 29 mg/dL | Plasma glucose mg/dL ± SEM ([6]; metformin alone 100 mg/kg per day oral gavage, Week 1): 428 ± 20 mg/dL | Plasma glucose mg/dL ± SEM ([6]; metformin alone 100 mg/kg per day oral gavage, Week 2): 504 ± 20 mg/dL | Plasma glucose mg/dL ± SEM ([6]; metformin alone 100 mg/kg per day oral gavage, Week 3): 494 ± 18 mg/dL | Plasma glucose mg/dL ± SEM ([6]; metformin alone 100 mg/kg per day oral gavage, Week 4): 393 ± 71 mg/dL | Plasma glucose mg/dL ± SEM ([6]; metformin alone 300 mg/kg per day oral gavage, Week 0 (before treatment)): 251 ± 27 mg/dL | Plasma glucose mg/dL ± SEM ([6]; metformin alone 300 mg/kg per day oral gavage, Week 1): 323 ± 33 mg/dL | Plasma glucose mg/dL ± SEM ([6]; metformin alone 300 mg/kg per day oral gavage, Week 2): 415 ± 29 mg/dL | Plasma glucose mg/dL ± SEM ([6]; metformin alone 300 mg/kg per day oral gavage, Week 3): 449 ± 11 mg/dL | Plasma glucose mg/dL ± SEM ([6]; metformin alone 300 mg/kg per day oral gavage, Week 4): 448 ± 42 mg/dL | Plasma glucose mg/dL ± SEM ([6]; metformin alone 500 mg/kg per day oral gavage, Week 0 (before treatment)): 252 ± 28 mg/dL | Plasma glucose mg/dL ± SEM ([6]; metformin alone 500 mg/kg per day oral gavage, Week 1): 244 ± 56 mg/dL | Plasma glucose mg/dL ± SEM ([6]; metformin alone 500 mg/kg per day oral gavage, Week 2): 344 ± 59 mg/dL | Plasma glucose mg/dL ± SEM ([6]; metformin alone 500 mg/kg per day oral gavage, Week 3): 374 ± 53 mg/dL | Plasma glucose mg/dL ± SEM ([6]; metformin alone 500 mg/kg per day oral gavage, Week 4): 443 ± 35 mg/dL | Blood glucose (approx.) [7]: ~330 mg/dL

CN(CCOc1ccc(CC2SC(=O)NC2=O)cc1)c1ccccn1 (centres unmarked) [Rosiglitazone]
Plasma cholesterol levels [8]: no significant effects | Blood glucose (approx.) [5, 9]: ~260 mg/dL | Blood glucose (approx.) ([5]; Pre-treatment): ~140 mg/dL | Blood glucose (approx.) [5, 10]: ~110 mg/dL | HbA1c [5]: 5.4% | Blood glucose (approx.) [7]: ~270 mg/dL
